From patent US20150289512A1, “METHOD FOR PROMOTING PLANT GROWTH” (SUMITOMO CHEMICAL COMPANY, LIMITED, priority 2012, published 2015) come the findings set out here.

Bounds are passed on as bounds.

Holding throughout (type): in vivo
Assay [1] relates to Rice (variety: Nipponbare). The assay is described as follows: Test Example 1: promotion of root growth by hydroponics of rice, 10 ppm. The settings on record: hydroponic solution containing the test compound at 10 ppm, average of 4 or 5 individuals; for change in vivo at 10 ppm: Oryza sativa, read-out: Relative value of length of seminal root (%-untreated control plot). The protocol:
(§1) Test for Evaluating Promotion of Root Growth by Hydroponics of Rice
(§2) Rice (variety: Nipponbare)
Rice seeds were soaked in a 1% aqueous sodium hypochlorite solution for 10 minutes, then soaked in a 70% ethanol solution for surface sterilization, and then washed with distilled water. The sterilized seeds were soaked in a hydroponic solution containing the test compound described above at 10 ppm and incubated in a dark place for 3 days at 28° C. to perform treatment for hastening germination.
Thereafter, 30 ml of hydroponic solution containing the test compound at 10 ppm was dispensed in a plastic tube (diameter of 20 mm×height of 113 mm) of which the side was covered with cardboard to block light. A float prepared using a styrene board and vinyl mesh was floated, and the rice seeds that had undergone the treatment for hastening germination were placed on the float on the surface of the hydroponic solution. The seeds were cultivated for 3 days at 26° C., an illuminance of 4,000 lux of the top surface of the tube, a humidity of 50%, and a day length of 16 hours.
(§3) The nursery plants of rice obtained after culturing were measured in terms of the length of seminal root by using WinRHIZO system (manufactured by Regent Instruments Inc). For each test plot, an average of the measured values of the seminal root of 4 or 5 individuals was determined.

Assay [2] relates to Rice (variety: Nipponbare). The assay is described as follows: Test Example 2: promotion of root growth by hydroponics of rice, 1 ppm. The note with it: hydroponic solution containing the test compound at 1 ppm, average of 4 or 5 individuals; for change in vivo at 1 ppm: Oryza sativa, read-out: Relative value of length of seminal root (%-untreated control plot). The protocol:
as §1, §2
A DMSO solution, which contained one of the compounds 1, 3, 11, 12, 14, 15, 17, 21, 28, 30, 33, 34, 35, 36, 37, 38, 40, 41, 43, 44, 45, 46, 47, 49, 50, 51, 52, 53, 54, 55, 56, 61, 62, 63, 65, 67, 68, 69, 70, 73, 74, 75, 76, 77, 80, 82, 83, 85 and 86 of the present invention at a concentration of 10,000 ppm, was added to Hoagland hydroponic solution (Hoagland and Arnon, California Agricultural Experiment Station 1950 Circular 347 pp. 34) of ¼-fold concentration at a volume ratio of 1/10,000. In this manner, hydroponic solutions containing one of the compounds 1, 3, 11, 12, 14, 15, 17, 21, 28, 30, 33, 34, 35, 36, 37, 38, 40, 41, 43, 44, 45, 46, 47, 49, 50, 51, 52, 53, 54, 55, 56, 61, 62, 63, 65, 67, 68, 69, 70, 73, 74, 75, 76, 77, 80, 82, 83, 85 and 86 of the present invention at 1 ppm were prepared respectively. As an untreated control plot, a hydroponic solution obtained by adding DMSO to Hoagland hydroponic solution of ¼-fold concentration at a volume ratio of 1/10,000 was used. Rice seeds were soaked in a 1% aqueous sodium hypochlorite solution for 10 minutes, then soaked in a 70% ethanol solution for surface sterilization, and then washed with distilled water. The sterilized seeds were soaked in a hydroponic solution containing the test compound described above at 1 ppm and incubated in a dark place for 3 days at 28° C. to perform treatment for hastening germination.
Thereafter, 30 ml of hydroponic solution containing the test compound at 1 ppm was dispensed in a plastic tube (diameter of 20 mm×height of 113 mm) of which the side was covered with cardboard to block light. A float prepared using a styrene board and vinyl mesh was floated, and the rice seeds that had undergone the treatment for hastening germination were placed on the float on the surface of the hydroponic solution. The seeds were cultivated for 3 days at 26° C., an illuminance of 4,000 lux of the top surface of the tube, a humidity of 50%, and a day length of 16 hours.
The nursery plants of rice obtained after cultivation were measured in terms of the length of seminal root by using WinRHIZO system (manufactured by Regent Instruments Inc). For each test plot, an average of the measured values of the seminal root of 4 or 5 individuals was determined.

The next assay has as its system Nicotiana benthamiana. Nature of the assay: Test Example 4: growth promotion under low-temperature stress by hydroponics of Nicotiana benthamiana, 10 ppm. The note with it: 10 ppm in medium, low-temperature stress 7 days at 1.5±1.0° C., green leaf area 3 days later, equation (1). The protocol: Test for Evaluating Growth Promotion Under Low-Temperature Stress by Hydroponics of Nicotiana benthamiana
A DMSO solution, which contained one of the compounds 1, 8, 9, 13, 18, 19, 22, 23, 29, 32, 33, 34, 39, 40, 41, 43, 44, 51, 53, 54, 55, 56, 58, 60, 62, 63, 64, 65, 67, 69, 71, 73, 74, 75, 77, 79, 82, 83 and 86 of the present invention at a concentration of 10,000 ppm, was prepared. The DMSO solution of the compound of the present invention was added at a volume ratio of 1/1,000 to the Murashige•Scoog medium of a ½-fold concentration (a medium containing 2.3 g of mixed salts for the Murashige•Scoog medium (manufactured by Wako Pure Chemical Industries, Ltd.), 200 mg of Myo-inositol (manufactured by Sigma-Aldrich Co. LLC.), 2 mg of nicotinic acid (manufactured by Wako Pure Chemical Industries, Ltd.), 2 mg of pyridoxine hydrochloride (manufactured by Wako Pure Chemical Industries, Ltd.), 20 mg of thiamine hydrochloride (manufactured by Wako Pure Chemical Industries, Ltd.), 20 g of sucrose (manufactured by Wako Pure Chemical Industries, Ltd.), and 1 g of MES (manufactured by DOJINDO LABORATORIES) per 1 L of water and having pH adjusted to 5.8), thereby preparing a medium containing the compound of the present invention at a concentration of 10 ppm.
Seeds of Nicotiana benthamiana were seeded in the 5 μL of the medium and cultured overnight at 22° C. Thereafter, 45 μL of the medium containing the compound of the present invention at a concentration of 10 ppm was added thereto, and the seeds are cultivated for 7 days at 22° C., an illuminance of 4,000 lux, and a day length of 16 hours, and the nursery plants raised from the Nicotiana benthamiana were treated with the compound. Moreover, instead of the above medium, a test plot, which was obtained by performing the same treatment by using a medium prepared by adding DMSO to the Murashige•Scoog medium of ½-fold concentration at a volume ratio of 1/1,000, was used as a control plot not treated with the compound.
The nursery plants of the Nicotiana benthamiana treated with the compound were subjected to low-temperature treatment by being cultivated for 7 days at 1.5±1.0° C., an illuminance of 2,000 lux, and a day length of 16 hours.
The nursery plants of the Nicotiana benthamiana having undergone the low-temperature stress treatment were cultivated for 3 days at 22° C., an illuminance of 4,000 lux, and a day length of 16 hours. Thereafter, the area of green leaf was quantified by Scanalyzer HTS (manufactured by LemnaTec GmbH). Moreover, the value of the control plot not treated with the compound that had not yet been subjected to the low-temperature stress treatment was measured in the same manner. A value of a relative leaf area was calculated based on the following equation (1), and if the value of a relative leaf area was 5 or greater, the compound was evaluated to have a mitigating effect. As a result of the evaluation, it was confirmed that when the plant was treated with one of the compounds 1, 8, 9, 13, 18, 19, 22, 23, 29, 32, 33, 34, 39, 40, 41, 43, 44, 51, 53, 54, 55, 56, 58, 60, 62, 63, 64, 65, 67, 69, 71, 73, 74, 75, 77, 79, 82, 83 and 86 of the present invention at 10 ppm, the value of a relative leaf area was 5 or greater, compared to the area of green leaf of the control plot not treated with compound. Accordingly, it was confirmed that the treatment using the compound of the present invention brings about a growth promotion effect.
Relative leaf area=100*(a green area of a plot treated with the compound of the present invention−a green area of a control plot not treated with the compound of the present invention)/(a green area of a control plot not treated with the compound of the present invention that has not yet been subjected to low-temperature stress treatment−a green area of a control plot not treated with the compound of the present invention) Equation (1): […]

In assay [3] the test system is Rice (variety: Nipponbare). The assay is described as follows: Test Example 3: promotion of root growth by hydroponics of rice, 0.1 ppm. The settings on record: Oryza sativa, hydroponic solution containing the test compound at 0.1 ppm, average of 4 or 5 individuals, read-out: Relative value of length of seminal root (%-untreated control plot). On the procedure:
as §1, §2
A DMSO solution, which contained one of the compounds 2, 6, 7, 16, 20, 33, 34, 36, 37, 38, 40, 41, 43, 44, 45, 46, 47, 48, 50, 51, 52, 53, 54, 55, 56, 61, 64, 67, 68, 71, 72, 73, 74, 75, 76, 79, 80, 81 and 83 of the present invention at a concentration of 1,000 ppm, was added to Hoagland hydroponic solution (Hoagland and Arnon, California Agricultural Experiment Station 1950 Circular 347 pp. 34) of ¼-fold concentration at a volume ratio of 1/10,000. In this manner, hydroponic solutions containing one of the compounds 2, 6, 7, 16, 20, 33, 34, 36, 37, 38, 40, 41, 43, 44, 45, 46, 47, 48, 50, 51, 52, 53, 54, 55, 56, 61, 64, 67, 68, 71, 72, 73, 74, 75, 76, 79, 80, 81 and 83 of the present invention at 0.1 ppm were prepared respectively. As an untreated control plot, a hydroponic solution obtained by adding DMSO to Hoagland hydroponic solution of ¼-fold concentration at a volume ratio of 1/10,000 was used.
Rice seeds were soaked in a 1% aqueous sodium hypochlorite solution for 10 minutes, then soaked in a 70% ethanol solution for surface sterilization, and then washed with distilled water. The sterilized seeds were soaked in a hydroponic solution containing the test compound described above at 0.1 ppm and incubated in a dark place for 3 days at 28° C. to perform treatment for hastening germination.
Thereafter, 30 ml of hydroponic solution containing the test compound at 0.1 ppm was dispensed in a plastic tube (diameter of 20 mm×height of 113 mm) of which the side was covered with cardboard to block light. A float prepared using a styrene board and vinyl mesh was floated, and the rice seeds that had undergone the treatment for hastening germination were placed on the float on the surface of the hydroponic solution. The seeds were cultivated for 3 days at 26° C., an illuminance of 4,000 lux of the top surface of the tube, a humidity of 50%, and a day length of 16 hours.
as §3

Regarding `COc1ccc(NC(=O)c2cc3cc(C(F)(F)F)ccc3[nH]2)c(OC)c1` [Compound 10, N-(2,4-dimethoxyphenyl)-5-trifluoromethylindole-2-carboxamide], the change in vivo at 10 ppm in assay [1] was greater than 5%.
Take `O=C(O)c1cc2cccc(C(F)(F)F)c2[nH]1` [Compound 11]: the “Relative value of length of seminal root (%-untreated control plot)” value (from here on “Relative value … (%-untreated control plot)”) in assay [2] is greater than 5%.
Still for that read-out and setting: the value for `CCOC(=O)c1cc2cccc(C(F)(F)F)c2[nH]1` [Compound 12] was greater than 5%.
Take `COC(=O)c1cc2ccccc2[nH]1` [Compound 13]: the “Relative value … (%-untreated control plot)” value in assay [1] was greater than 5%.
As to `Cn1c(C(=O)O)cc2ccccc21` [Compound 14], the “Relative value … (%-untreated control plot)” value in assay [2] is greater than 5%.
In the case of `COC(=O)c1cc2ccccc2n1C` [Compound 15], the change in vivo at 1 ppm in assay [2] was greater than 5%.
Turning to `O=C(O)c1nc2ccccc2[nH]1` [Compound 18], the change in vivo at 10 ppm in assay [1] was greater than 5%. Besides, the relative leaf area at 10 ppm in the assay with Nicotiana benthamiana is no less than 5%.
For the compound `COC(=O)c1nc2ccccc2[nH]1` [Compound 19], in assay [1], the “Relative value … (%-untreated control plot)” value is given as greater than 5%.
Consider `COC(=O)c1nc2ccc(C(F)(F)F)cc2n1C` [Compound 25, methyl 1-methyl-6-trifluoromethylbenzimidazole-2-carboxylate], for which the change in vivo at 10 ppm in assay [1] was greater than 5%.
As to `COC(=O)c1nc2cccnc2n1C` [Compound 26, methyl 3-methyl-3H-imidazo[4,5-b]pyridine-2-carboxylate], the change in vivo at 10 ppm in assay [1] was greater than 5%.
`COC(=O)c1oc2ccccc2c1O` [Compound 35]: the change in vivo at 1 ppm in assay [2] is greater than 5%. The change in vivo at 10 ppm in assay [1] was greater than 5%.
On to `COC(=O)c1oc2ccccc2c1N(C(=O)C(F)(F)F)C(=O)C(F)(F)F` [Compound 38], for which the change in vivo at 1 ppm in assay [2] is greater than 5%. In addition, the change in vivo at 10 ppm in assay [1] was greater than 5%. In assay [3], the change in vivo at 0.1 ppm is greater than 5%.
On to `CCOC(=O)c1cc2ccc(C(F)(F)F)cc2o1` [Compound 46], for which the change in vivo at 1 ppm in assay [2] is greater than 5%. Further, the change in vivo at 10 ppm in assay [1] is greater than 5%. In addition, the change in vivo at 0.1 ppm in assay [3] was greater than 5%.
Consider `O=C(O)c1cc2ccc(C(F)(F)F)cc2o1` [Compound 47], for which, in assay [2], the change in vivo at 1 ppm is greater than 5%. Further, the change in vivo at 10 ppm in assay [1] is greater than 5%. The change in vivo at 0.1 ppm in assay [3] was greater than 5%.
As for `Nc1c(C(=O)O)oc2ccc(C(F)(F)F)cc12` [Compound 49], the change in vivo at 1 ppm in assay [2] is greater than 5%. Moreover, in assay [1], the change in vivo at 10 ppm is greater than 5%.
In the case of `COC(=O)c1oc2ccccc2c1NS(=O)(=O)c1ccccc1` [Compound 61], the change in vivo at 1 ppm in assay [2] is greater than 5%. Moreover, in assay [1], the change in vivo at 10 ppm was greater than 5%. Also, the change in vivo at 0.1 ppm in assay [3] was greater than 5%.
As for `O=C(Oc1ccccc1)c1oc2ccc(C(F)(F)F)cc2c1C(F)(F)F` [Compound 72], the change in vivo at 0.1 ppm in assay [3] is greater than 5%.
